Results as given in ChEMBL document CHEMBL5512690, “Identification and Validation of PKR as a Direct Target for the Novel Sulfonamide-Substituted Tetrahydroquinoline Nonselective Inhibitor of the NLRP3 Inflammasome” (J Med Chem, 2024).

Assays:
[1] = Cytotoxicity against human differentiated THP-M cells derived PMA induced THP-1 cells measured after 72 hrs by MTT assay
[2] = target: NACHT, LRR and PYD domains-containing protein 3 (Homo sapiens, UniProt Q96P20)
NACHT, LRR and PYD domains-containing protein 3, sequence (Q96P20 whole entry, the tested form may be a part): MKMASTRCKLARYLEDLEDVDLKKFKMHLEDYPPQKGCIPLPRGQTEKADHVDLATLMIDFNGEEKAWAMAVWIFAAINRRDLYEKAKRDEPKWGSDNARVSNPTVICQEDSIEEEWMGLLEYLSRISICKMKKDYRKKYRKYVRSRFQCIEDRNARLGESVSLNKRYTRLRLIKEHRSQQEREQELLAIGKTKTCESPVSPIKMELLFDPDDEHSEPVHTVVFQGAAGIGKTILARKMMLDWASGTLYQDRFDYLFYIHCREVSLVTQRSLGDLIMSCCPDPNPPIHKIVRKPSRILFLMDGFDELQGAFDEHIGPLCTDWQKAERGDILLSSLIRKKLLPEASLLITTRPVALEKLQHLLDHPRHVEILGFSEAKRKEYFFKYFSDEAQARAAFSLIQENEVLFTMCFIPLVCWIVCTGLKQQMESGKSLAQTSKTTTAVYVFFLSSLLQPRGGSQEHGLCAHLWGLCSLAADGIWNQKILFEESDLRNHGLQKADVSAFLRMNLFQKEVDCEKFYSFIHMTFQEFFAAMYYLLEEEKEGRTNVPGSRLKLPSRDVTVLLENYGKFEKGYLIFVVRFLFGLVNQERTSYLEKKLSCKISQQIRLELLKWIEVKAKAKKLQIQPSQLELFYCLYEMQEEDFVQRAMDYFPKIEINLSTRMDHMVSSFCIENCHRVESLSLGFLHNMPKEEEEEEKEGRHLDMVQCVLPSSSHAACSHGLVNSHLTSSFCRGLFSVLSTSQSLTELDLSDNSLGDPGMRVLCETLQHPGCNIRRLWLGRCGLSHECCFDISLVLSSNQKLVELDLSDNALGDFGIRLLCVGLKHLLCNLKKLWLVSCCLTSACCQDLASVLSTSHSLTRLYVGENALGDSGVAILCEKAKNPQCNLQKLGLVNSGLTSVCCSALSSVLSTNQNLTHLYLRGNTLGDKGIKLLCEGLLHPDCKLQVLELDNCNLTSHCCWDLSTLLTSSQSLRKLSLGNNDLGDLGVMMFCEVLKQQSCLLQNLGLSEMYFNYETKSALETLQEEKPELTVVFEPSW
Description: Inhibition of NLRP3 inflammasome activation in LPS primed human differentiated THP-M cells derived PMA induced THP-1 cells assessed as inhibition of IL-1 beta level preincubated with compound for 24 hrs followed by LPS stimulation for 3 hrs and further incubated with ATP for 1 hr by ELISA method

Q: What does the source list for O=C(O)c1ccc(/C=C2\SC(=S)N(Cc3cccc(C(F)(F)F)c3)C2=O)cc1?
A: CC50 [1]: > 100 µM; IC50 [2]: 5.33 µM

Q: With CS(=O)(=O)N1CCCc2ccc(NS(=O)(=O)c3ccc(Br)cc3)cc21 as the compound, how does the CC50 [1] read?
A: The CC50 was > 100 µM.

Q: With CS(=O)(=O)N1CCCc2ccc(NS(=O)(=O)c3cccs3)cc21 as the compound, how does the CC50 [1] read?
A: Its CC50 is > 100 µM.

Q: For CS(=O)(=O)N1CCCc2ccc(NS(=O)(=O)c3cccc4ccccc34)cc21, which CC50 [1] is on record?
A: Its CC50 is > 100 µM.

Q: Which CC50 [1] does the source give for CS(=O)(=O)N1CCCc2ccc(NS(=O)(=O)c3ccccn3)cc21 here?
A: Its CC50 is > 100 µM.

Q: Which CC50 [1] does the source give for CS(=O)(=O)N1CCCc2ccc(NS(=O)(=O)c3ccc(C#N)cc3)cc21 here?
A: The CC50 was > 100 µM.

Q: Which CC50 [1] does the source give for CC(=O)c1ccc(S(=O)(=O)Nc2ccc3c(c2)N(S(C)(=O)=O)CCC3)cc1 here?
A: The CC50 was > 100 µM.

Q: With CS(=O)(=O)N1CCCc2ccc(NS(=O)(=O)c3ccc4ccccc4c3)cc21 as the compound, how does the CC50 [1] read?
A: Its CC50 is > 100 µM.

Q: With CS(=O)(=O)N1CCCc2ccc(NS(=O)(=O)c3ccc(F)cc3)cc21 as the compound, how does the CC50 [1] read?
A: Its CC50 is > 100 µM.

Q: With CS(=O)(=O)N1CCCc2ccc(NS(=O)(=O)c3ccccc3)cc21 as the compound, how does the CC50 [1] read?
A: The CC50 was > 100 µM.

Q: With CS(=O)(=O)N1CCCc2ccc(NS(=O)(=O)c3cccc4cccnc34)cc21 as the compound, how does the CC50 [1] read?
A: Its CC50 is > 100 µM.

Q: Which CC50 [1] does the source give for CS(=O)(=O)N1CCCc2ccc(NS(=O)(=O)c3ccccc3[N+](=O)[O-])cc21 here?
A: Its CC50 is > 100 µM.

Q: With CS(=O)(=O)Nc1ccc2c(c1)N(S(C)(=O)=O)CCC2 as the compound, how does the CC50 [1] read?
A: The CC50 was > 100 µM.

Q: With CS(=O)(=O)N1CCCc2ccc(NS(=O)(=O)c3ccc(C(F)(F)F)cc3)cc21 as the compound, how does the CC50 [1] read?
A: The CC50 was > 100 µM.

Q: With COC(=O)c1ccsc1S(=O)(=O)Nc1ccc2c(c1)N(S(C)(=O)=O)CCC2 as the compound, how does the CC50 [1] read?
A: Its CC50 is > 100 µM.

Q: With CS(=O)(=O)N1CCCc2ccc(NS(=O)(=O)c3ccc(Cl)cc3)cc21 as the compound, how does the CC50 [1] read?
A: Its CC50 is > 100 µM.

Q: For CS(=O)(=O)N1CCCc2ccc(NS(=O)(=O)c3cccc(F)c3)cc21, which CC50 [1] is on record?
A: Its CC50 is > 100 µM.

Q: With CS(=O)(=O)N1CCCc2ccc(NS(=O)(=O)c3ccccc3F)cc21 as the compound, how does the CC50 [1] read?
A: The CC50 was > 100 µM.

Q: Which CC50 [1] does the source give for CS(=O)(=O)N1CCCc2ccc(NS(=O)(=O)Cc3ccccc3)cc21 here?
A: Its CC50 is > 100 µM.

Q: For CC(=O)Nc1ccc(S(=O)(=O)Nc2ccc3c(c2)N(S(C)(=O)=O)CCC3)cc1, which CC50 [1] is on record?
A: The CC50 was > 100 µM.

Q: With COc1ccc(S(=O)(=O)Nc2ccc3c(c2)N(S(C)(=O)=O)CCC3)cc1 as the compound, how does the CC50 [1] read?
A: The CC50 was > 100 µM.

Q: With CCCS(=O)(=O)Nc1ccc2c(c1)N(S(C)(=O)=O)CCC2 as the compound, how does the CC50 [1] read?
A: Its CC50 is > 100 µM.

Q: For CC(C)(C)c1ccc(S(=O)(=O)Nc2ccc3c(c2)N(S(C)(=O)=O)CCC3)cc1, which CC50 [1] is on record?
A: Its CC50 is > 100 µM.

Q: Which CC50 [1] does the source give for CCS(=O)(=O)Nc1ccc2c(c1)N(S(C)(=O)=O)CCC2 here?
A: Its CC50 is > 100 µM.

Q: For CS(=O)(=O)N1CCCc2ccc(NS(=O)(=O)c3ccc([N+](=O)[O-])cc3)cc21, which CC50 [1] is on record?
A: Its CC50 is > 100 µM.

Q: With CCCCS(=O)(=O)Nc1ccc2c(c1)N(S(C)(=O)=O)CCC2 as the compound, how does the CC50 [1] read?
A: Its CC50 is > 100 µM.

Q: Which CC50 [1] does the source give for COC(=O)c1ccc(S(=O)(=O)Nc2ccc3c(c2)N(S(C)(=O)=O)CCC3)cc1 here?
A: The CC50 was > 100 µM.

Q: For Cc1ccc(S(=O)(=O)Nc2ccc3c(c2)N(S(C)(=O)=O)CCC3)cc1, which CC50 [1] is on record?
A: The CC50 was > 100 µM.

Q: For CS(=O)(=O)N1CCCc2ccc(NS(=O)(=O)c3cc(C(F)(F)F)cc(C(F)(F)F)c3)cc21, which CC50 [1] is on record?
A: Its CC50 is > 100 µM.
